How the values were obtained:
SGLT2 = target: T1, SGLT2 (Homo sapiens, UniProt P31639); assay: SGLT2 activity measurement: 14C-AMG uptake in BHK cells transfected with SGLT2; assay type: cell-based; conditions: AMG 2 mM, 37° C., 90 min
T1 construct: expressed in transfected cells
T1 sequence (P31639 1-672): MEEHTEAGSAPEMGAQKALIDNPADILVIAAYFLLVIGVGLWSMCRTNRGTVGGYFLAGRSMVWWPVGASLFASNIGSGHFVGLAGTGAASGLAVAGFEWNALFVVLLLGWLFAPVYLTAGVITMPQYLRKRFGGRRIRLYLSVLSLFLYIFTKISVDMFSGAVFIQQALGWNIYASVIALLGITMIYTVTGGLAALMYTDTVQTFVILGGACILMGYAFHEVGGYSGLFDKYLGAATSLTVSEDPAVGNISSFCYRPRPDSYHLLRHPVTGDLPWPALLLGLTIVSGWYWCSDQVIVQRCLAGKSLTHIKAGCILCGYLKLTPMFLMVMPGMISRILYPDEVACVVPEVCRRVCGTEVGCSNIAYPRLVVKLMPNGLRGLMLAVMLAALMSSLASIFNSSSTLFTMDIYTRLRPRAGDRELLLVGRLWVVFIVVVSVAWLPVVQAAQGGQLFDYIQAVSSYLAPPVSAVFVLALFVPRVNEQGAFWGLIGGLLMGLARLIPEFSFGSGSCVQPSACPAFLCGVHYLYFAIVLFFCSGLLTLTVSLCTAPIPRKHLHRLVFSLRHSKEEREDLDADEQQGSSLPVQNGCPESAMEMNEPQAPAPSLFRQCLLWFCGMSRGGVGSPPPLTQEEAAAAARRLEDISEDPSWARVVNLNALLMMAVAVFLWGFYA
Procedure, shortened: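 BHK21 cells stably expressing human SGLT2 took up 14C-AMG (added as 2 mM solution) ± compound for 90 min at 37 °C in Na+-containing HEPES/Tris buffer, pH 7.4. Uptake was measured by scintillation counting after lysis. Non-specific uptake was defined in sodium-free sucrose buffer.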

SGLT1 = target: T2, SGLT1 (Homo sapiens, UniProt P13866); assay: SGLT1 activity measurement: 14C-AMG uptake in BHK cells transfected with SGLT1; assay type: cell-based; conditions: AMG 50 μM, 37° C., 90 min
T2 construct: expressed in transfected cells
T2 sequence (P13866 1-664): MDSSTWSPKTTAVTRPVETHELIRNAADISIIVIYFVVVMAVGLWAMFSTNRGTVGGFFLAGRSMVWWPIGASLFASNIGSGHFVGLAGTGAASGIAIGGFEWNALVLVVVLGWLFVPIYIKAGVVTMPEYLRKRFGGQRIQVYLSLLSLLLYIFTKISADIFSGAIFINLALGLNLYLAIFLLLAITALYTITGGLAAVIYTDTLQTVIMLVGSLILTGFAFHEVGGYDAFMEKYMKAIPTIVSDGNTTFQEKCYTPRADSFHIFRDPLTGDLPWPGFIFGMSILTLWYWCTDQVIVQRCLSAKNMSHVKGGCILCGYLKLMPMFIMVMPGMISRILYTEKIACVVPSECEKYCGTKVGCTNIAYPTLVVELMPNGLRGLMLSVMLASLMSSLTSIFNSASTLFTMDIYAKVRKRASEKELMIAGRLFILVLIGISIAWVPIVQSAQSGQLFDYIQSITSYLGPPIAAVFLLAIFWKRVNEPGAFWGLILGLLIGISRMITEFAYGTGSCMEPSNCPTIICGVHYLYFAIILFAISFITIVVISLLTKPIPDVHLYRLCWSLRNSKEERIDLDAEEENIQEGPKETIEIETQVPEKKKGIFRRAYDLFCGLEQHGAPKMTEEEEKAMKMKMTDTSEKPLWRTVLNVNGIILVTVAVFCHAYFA
Procedure, shortened: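 BHK21 cells stably transfected with human SLC5A1 were incubated with 14C-AMG (added solution at 50 μM) ± compound for 90 min at 37 °C. The buffer was 140 mM NaCl, HEPES/Tris, pH 7.4. Lysed-cell radioactivity was counted by scintillation, and non-specific uptake was measured in sodium-free sucrose buffer.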

SMILES | IC50 (SGLT2) [nM] | IC50 (SGLT1) [nM]
CCc1cccc(OCC(N)=O)c1-c1nc2ccc(F)cn2c1Nc1c(Cl)cccc1Cl [Compound A241, 2-[2-(Aminocarbonylmethoxy)-6-ethylphenyl]-3-(2,6-dichlorophenylamino)-6-fluoroimidazo-[1,2-a]pyridine] | 10 to 1000 | 10 to 1000
COc1cc(C)c(-c2nc3ccc(F)cn3c2Nc2c(F)cccc2Br)c(OCC(N)=O)c1 [Compound A243, 2-[2-(Aminocarbonylmethoxy)-4-methoxy-6-methylphenyl]-3-(2-fluoro-6-bromophenylamino)-6-fluoroimidazo[1,2-a]pyridine] | 10 to 1000 | 1000 to 10000
COc1cc(C)c(-c2nc3ccc(F)cn3c2Nc2c(F)cc(F)cc2F)c(OCC(N)=O)c1 [Compound A244, 2-[2-(Aminocarbonylmethoxy)-4-methoxy-6-methylphenyl]-3-(2,4,6-trifluorophenylamino)-6-fluoroimidazo[1,2-a]pyridine] | 10 to 1000 | 1000 to 10000
COc1cc(C)c(-c2nc3ccc(F)cn3c2Nc2c(F)cccc2Cl)c(OCC(N)=O)c1 [Compound A248, 2-[2-(Aminocarbonylmethoxy)-4-methoxy-6-methylphenyl]-3-(2-fluoro-6-chlorophenylamino)-6-fluoroimidazo[1,2-a]pyridine] | 10 to 1000 | > 10000
COc1cc(C)c(-c2nc3ccc(F)cn3c2Nc2c(C)cc(Br)c(C)c2Br)c(OCC(N)=O)c1 [Compound A249, 2-[2-(Aminocarbonylmethoxy)-4-methoxy-6-methylphenyl]-3-(2,5-dimethyl-4,6-dibromophenylamino)-6-fluoroimidazo[1,2-a]-pyridine] | 1000 to 10000 | 1000 to 10000
COc1cc(C)c(-c2nc3c(F)cc(F)cn3c2Nc2c(C)cc(F)cc2C)c(OCC(N)=O)c1 [Compound A251, 2-[2-(Aminocarbonylmethoxy)-4-methoxy-6-methylphenyl]-3-(2,6-dimethyl-4-fluorophenyl-amino)-6,8-difluoroimidazo[1,2-a]pyridine] | 10 to 1000 | 1000 to 10000
COc1cc(C)c(-c2nc3ccc(F)cn3c2Nc2c(C)cc([N+](=O)[O-])cc2C)c(OCC(N)=O)c1 [Compound A254, 2-[2-(Aminocarbonylmethoxy)-4-methoxy-6-methylphenyl]-3-(2,6-dimethyl-4-nitrophenyl-amino)-6-fluoroimidazo[1,2-a]pyridine] | 10 to 1000 | > 10000
CCc1cc(OC)cc(OCC(N)=O)c1-c1nc2c(F)cc(F)cn2c1Nc1c(C)cc(F)cc1C [Compound A255, 2-[2-(Aminocarbonylmethoxy)-4-methoxy-6-ethylphenyl]-3-(2,6-dimethyl-4-fluorophenyl-amino)-6,8-difluoroimidazo[1,2-a]pyridine] | 10 to 1000 | 1000 to 10000
COc1cc(C)c(-c2nc3ccc(F)cn3c2Nc2c(C)cccc2Cl)c(OCC(N)=O)c1 [Compound A256, 2-[2-(Aminocarbonylmethoxy)-4-methoxy-6-methylphenyl]-3-(2-chloro-6-methylphenyl-amino)-6-fluoroimidazo[1,2-a]pyridine] | 10 to 1000 | 1000 to 10000

More lines, now with the values ahead:

IC50 (SGLT2) [nM] | IC50 (SGLT1) [nM] | SMILES
10 to 1000 | 1000 to 10000 | COc1cc(C)c(-c2nc3ccc(F)cn3c2Nc2c(F)cccc2C(F)(F)F)c(OCC(N)=O)c1 [Compound A242, 2-[2-(Aminocarbonylmethoxy)-4-methoxy-6-methylphenyl]-3-(2-fluoro-6-trifluoromethyl-phenylamino)-6-fluoroimidazo[1,2-a]pyridine]
1000 to 10000 | > 10000 | CCc1cc(OC)cc(OCC(N)=O)c1-c1nc2ccc(F)cn2c1Nc1c(C)cc(C(=O)OC)cc1C [Compound A245, 2-[2-(Aminocarbonylmethoxy)-4-methoxy-6-ethylphenyl]-3-(2,6-dimethyl-4-methoxycarbonyl-phenylamino)-6-fluoroimidazo[1,2-a]pyridine]
1000 to 10000 | > 10000 | COC(=O)c1cccc(C)c1Nc1c(-c2c(C)cc(OC)cc2OCC(N)=O)nc2ccc(F)cn12 [Compound A246, 2-[2-(Aminocarbonylmethoxy)-4-methoxy-6-methylphenyl]-3-(2-methyl-6-methoxycarbonyl-phenylamino)-6-fluoroimidazo[1,2-a]pyridine]
10 to 1000 | > 10000 | CCc1cc(OC)cc(OCC(N)=O)c1-c1nc2ccc(F)cn2c1Nc1c(C)cccc1C(F)(F)F [Compound A247, 2-[2-(Aminocarbonylmethoxy)-4-methoxy-6-ethylphenyl]-3-(2-methyl-6-trifluoromethylphenyl-amino)-6-fluoroimidazo[1,2-a]pyridine]
10 to 1000 | > 10000 | COc1cc(C)c(-c2nc3ccc(F)cn3c2Nc2c(C)cc(C)cc2[N+](=O)[O-])c(OCC(N)=O)c1 [Compound A250, 2-[2-(Aminocarbonylmethoxy)-4-methoxy-6-methylphenyl]-3-(2,4-dimethyl-6-nitrophenyl-amino)-6-fluoroimidazo[1,2-a]pyridine]
1000 to 10000 | 1000 to 10000 | COc1cc(C)c(-c2nc3ccc(F)cn3c2Nc2c(F)cc(Br)cc2F)c(OCC(N)=O)c1 [Compound A252, 2-[2-(Aminocarbonylmethoxy)-4-methoxy-6-methylphenyl]-3-(2,6-difluoro-4-bromophenyl-amino)-6-fluoroimidazo[1,2-a]pyridine]
10 to 1000 | 1000 to 10000 | CCc1cc(OC)cc(OCC(N)=O)c1-c1nc2ccc(F)cn2c1Nc1c(C)cccc1Cl [Compound A257, 2-[2-(Aminocarbonylmethoxy)-4-methoxy-6-ethylphenyl]-3-(2-chloro-6-methylphenylamino)-6-fluoroimidazo[1,2-a]pyridine]
